We go through one compound from patent publication US11771736B2, “Composition comprising a therapeutic agent and a CXCR4 selective antagonist and methods for using the same” (Mainline Biosciences (Shanghai) Co., Ltd., priority 2017, dated 2023).

SMILES strings stand for the structures. Numbered stars: 1 amine (or outer) side, 2 acyl side, 3 side chain; on linkers, the order of the positions; unused ones are H or OH. Bridge positions count the residues as written; N and C are the ends. Square brackets hold non-standard residues; d marks the D form. Peptide text beside a SMILES is read from it. * marks the point of attachment. 2Nal = N[C@@H](Cc1ccc2ccccc2c1)C(=O)O; oXylylene = c1ccc(C[*:2])c(C[*:1])c1; Lys(iPr) = CC(C)NCCCC[C@H](N)C(=O)O; Bz = O=C(c1ccccc1)*

The IC50 is the concentration that inhibits the measured activity by half. A low value points to higher potency.

The target of this experiment is T1, Human chemokine receptor CXCR4 (Homo sapiens, UniProt P61073).
T1 construct: expressed in transfected cells; host or cells: Chem-1 cells (membranes)
Description: Human CXCR4/125I-SDF-1α binding inhibition assay. The procedure: Non-specific binding was estimated in the presence of 30 nM SDF-1α.

T1 sequence (P61073 whole entry): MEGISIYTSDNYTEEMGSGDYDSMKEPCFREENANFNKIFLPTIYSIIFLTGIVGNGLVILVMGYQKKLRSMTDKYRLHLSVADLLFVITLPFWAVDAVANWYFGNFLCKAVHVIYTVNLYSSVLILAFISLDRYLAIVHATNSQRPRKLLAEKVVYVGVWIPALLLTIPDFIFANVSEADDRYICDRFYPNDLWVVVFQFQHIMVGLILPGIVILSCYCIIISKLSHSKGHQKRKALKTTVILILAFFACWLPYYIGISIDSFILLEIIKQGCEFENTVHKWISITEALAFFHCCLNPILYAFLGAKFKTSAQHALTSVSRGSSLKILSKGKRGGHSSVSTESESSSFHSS

Take `CC(C)NCCCC[C@H](NC(=O)[C@@H]1CSCc2ccccc2CSC[C@H](NC(=O)c2ccccc2)C(=O)N[C@@H](Cc2ccc(O)cc2)C(=O)N[C@@H](CCCCNC(C)C)C(=O)N[C@H](CCCNC(=N)N)C(=O)N[C@@H](Cc2ccc3ccccc3c2)C(=O)NCC(=O)N1)C(=O)NCC(N)=O` [Example 20] (Bz-CY[Lys(iPr)][dR][2Nal]GC[Lys(iPr)]G-NH2; linker 1-7 via oXylylene): the IC50 turned out to be 1.3 nM and the Kb came to 0.39 nM.
